Measured values as given in ChEMBL document CHEMBL1201862, “PubChem BioAssay data set” (2004).
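Each compound was tested at five concentrations against cells in 96-well plates for 48 hours. GI50 = concentration required for 50% inhibition of growth.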 Active and inactive are the calls of the source. Rule as the data show it: active = GI50 up to about 1.1 µM and inactive = higher.

How the values were obtained:
Experiment in all cases: inhibition of tumour cell growth, NCI panel, 48 h
[1] = tested on: UO-31
[2] = tested on: 786-0
[3] = tested on: PC-3
[4] = tested on: NCI-H23
[5] = tested on: SW-620
[6] = tested on: A498
[7] = tested on: OVCAR-3
[8] = tested on: HCT-15
[9] = tested on: ACHN
[10] = tested on: MCF7
[11] = tested on: UACC-257
[12] = tested on: CCRF-CEM
[13] = tested on: A549
[14] = tested on: KM12
[15] = tested on: SK-OV-3
[16] = tested on: MDA-MB-435
[17] = tested on: HOP-92
[18] = tested on: K562
[19] = tested on: MOLT-4
[20] = tested on: SNB-75

Measured: GI50

COc1cc(OC)cc(-c2nc3cc(F)ccc3s2)c1
inactive: [1] 31 µM | [2] 9.08 µM | [3] 39.5 µM | [4] 12.9 µM | [5] > 100 µM | [6] 19.1 µM | [7] 26.2 µM | [9] 14.5 µM | [10] 1.83 µM | [11] > 100 µM | [12] > 100 µM | [13] > 100 µM | [14] > 100 µM | [15] 13.5 µM | [16] > 100 µM
55.1 µM: [8]

CCc1cccc(C(C)C)c1C1C(=O)C(=O)N(c2nc3ccccc3s2)C(=O)C1=O
inactive: [1] > 100 µM | [2] > 100 µM | [4] > 100 µM | [5] > 100 µM | [6] > 100 µM | [7] > 100 µM | [17] 38.7 µM | [9] > 100 µM | [11] > 100 µM | [12] > 100 µM | [18] > 100 µM | [13] > 100 µM | [14] > 100 µM | [19] > 100 µM | [15] > 100 µM | [20] > 100 µM
> 100 µM: [8]

COc1ccc2c(c1)c1c(n2CCN2CCCCC2)-c2ccccc2CC1
11.5 µM: [8]
inactive: [1] 13.3 µM | [2] 18.6 µM | [3] 13.6 µM | [4] 17.7 µM | [5] 17.4 µM | [7] 18.3 µM | [17] 15.8 µM | [9] 17.2 µM | [10] 14.3 µM | [11] 17.9 µM | [12] 14 µM | [18] 8.99 µM | [13] 16.4 µM | [14] 14 µM | [19] 14.6 µM | [15] 19.7 µM | [16] 17.5 µM | [20] 14.6 µM

COc1c(-c2cccs2)oc2c(CC(=O)O)cccc2c1=O
inactive: [1] 10.3 µM | [2] > 100 µM | [3] > 100 µM | [4] 53.3 µM | [6] 86.3 µM | [7] > 100 µM | [10] > 100 µM | [11] > 100 µM | [12] > 100 µM | [18] > 100 µM | [13] > 100 µM | [19] 56.9 µM | [15] > 100 µM | [16] > 100 µM

COC1=CC(C2c3cc4c(cc3[C@@H](Nc3ccc([N+](=O)[O-])cc3)C3COC(=O)[C@H]23)OCO4)=CC(=O)C1=O (some centres not stated)
3.27 µM: [8]
inactive: [1] 6.24 µM | [2] 1.83 µM | [4] 1.64 µM | [5] 5.31 µM | [6] 1.84 µM | [7] 14.2 µM | [17] 1.52 µM | [11] 16.1 µM | [18] 6.22 µM | [14] 4.53 µM | [15] 2.48 µM | [20] 1.54 µM
active: [9] 0.912 µM | [12] 1.06 µM | [13] 0.923 µM | [19] 0.217 µM

COC(=O)C[S+]([O-])c1ccccc1 (configuration not stated)
28.7 µM: [8]
inactive: [1] 4.63 µM | [2] 26.7 µM | [4] 35 µM | [5] 38.3 µM | [6] 49.8 µM | [7] 31.3 µM | [17] 17.6 µM | [9] 33.7 µM | [11] 60.4 µM | [12] 7.67 µM | [18] 35.9 µM | [13] 26.8 µM | [14] 28.3 µM | [19] 10.8 µM | [15] 60.7 µM | [20] > 10 µM

COc1cc(C2c3cc4c(cc3[C@@H](Nc3ccc(F)cc3)C3CO[C@@H](O)[C@H]23)OCO4)cc(OC)c1O (some centres not stated)
3.89 µM: [8]
active: [9] 1.05 µM | [12] 0.925 µM | [13] 0.853 µM | [19] 0.236 µM
inactive: [1] 1.24 µM | [2] 4.61 µM | [3] 3.61 µM | [5] 8.38 µM | [10] 1.9 µM | [11] 20.7 µM | [18] 4.37 µM | [14] 5.66 µM | [15] 8.65 µM | [16] 12.3 µM | [20] 4.83 µM

O=C1C[C@H](c2ccc(O)c(O)c2)Oc2cc(O)cc(O)c21
inactive: [1] 29.8 µM | [2] > 100 µM | [4] > 100 µM | [5] > 100 µM | [6] > 100 µM | [7] > 100 µM | [17] 56.8 µM | [9] 65.8 µM | [11] > 100 µM | [12] 31.2 µM | [18] > 100 µM | [13] > 100 µM | [14] 78.2 µM | [19] 74.5 µM | [15] > 100 µM | [20] 83.9 µM
> 100 µM: [8]

Cc1ccc(C(=O)N/N=C(\N=N\c2cccc([N+](=O)[O-])c2)c2ccc(N(C)C)cc2)cc1
inactive: [1] 61.2 µM | [2] > 100 µM | [3] > 100 µM | [4] > 100 µM | [5] > 100 µM | [7] 34.6 µM | [17] > 100 µM | [10] > 100 µM | [11] 58.3 µM | [12] 35 µM | [18] 30.3 µM | [13] > 100 µM | [14] 64.9 µM | [19] 14.4 µM | [16] 24.9 µM
50.7 µM: [8]

COc1cc(C(=O)O)c(-c2cc3c(cc2C=O)OCO3)c(OC)c1OC
> 10 µM: [8]
inactive: [2] > 10 µM | [3] > 10 µM | [4] > 10 µM | [5] > 10 µM | [7] > 10 µM | [17] > 10 µM | [9] > 10 µM | [10] > 10 µM | [11] > 10 µM | [12] > 10 µM | [18] > 10 µM | [13] > 10 µM | [14] > 10 µM | [19] > 10 µM | [15] > 10 µM | [16] > 10 µM | [20] > 10 µM

C1CSC[C@H]2COC[C@@H](CSCCS1)S2
> 100 µM: [8]
inactive: [1] > 100 µM | [2] > 100 µM | [3] > 100 µM | [4] > 100 µM | [5] > 100 µM | [7] > 100 µM | [17] > 100 µM | [10] > 100 µM | [11] > 100 µM | [12] > 100 µM | [18] > 100 µM | [13] > 100 µM | [14] > 100 µM | [19] > 100 µM | [16] > 100 µM | [20] 56 µM

CCN(CC)c1ccc2cc(C(N)=O)c(=N)oc2c1
35 µM: [8]
inactive: [2] 30.1 µM | [3] 26.3 µM | [4] 42.8 µM | [5] 47.4 µM | [6] 38.2 µM | [7] 31.6 µM | [17] 24 µM | [9] 32.7 µM | [11] > 100 µM | [12] 31.2 µM | [18] > 100 µM | [13] 37.4 µM | [14] 31 µM | [19] 69.2 µM | [15] 36.6 µM | [16] 30.9 µM | [20] 26.5 µM

COc1cc(S(=O)(=O)Nc2ccc(-c3csc(/N=C\c4cccc(Oc5ccccc5)c4)n3)cc2)ccc1Cl
inactive: [1] 29.9 µM | [2] 5.58 µM | [3] 36.7 µM | [4] 45.9 µM | [5] 40.3 µM | [7] 31.9 µM | [17] 20.1 µM | [9] 15.5 µM | [10] 5.2 µM | [12] 32 µM | [18] 22.6 µM | [13] 4.62 µM | [14] 31.8 µM | [19] 23 µM | [16] 30.8 µM | [20] 30.8 µM
35.6 µM: [8]

C=C1C(=O)C=C2C=C3C(=O)C(C)(C)C[C@]3(O)C12C (some centres not stated)
active: [5] 0.968 µM | [12] 0.131 µM | [18] 0.684 µM | [19] 0.57 µM
inactive: [1] 7.11 µM | [2] 1.81 µM | [3] 3.14 µM | [4] 4.81 µM | [6] 12.8 µM | [7] 1.8 µM | [17] 1.59 µM | [9] 2.23 µM | [11] 2.93 µM | [13] 20 µM | [14] 16.2 µM | [15] 19.3 µM | [16] 12.4 µM | [20] 14.2 µM
2.25 µM: [8]

CC(=O)OC1COC(N2C(=O)C(=O)c3ccccc32)C(OC(C)=O)C1OC(C)=O (configuration not stated)
> 100 µM: [8]
inactive: [1] > 100 µM | [2] > 100 µM | [4] > 100 µM | [5] > 100 µM | [6] > 100 µM | [7] > 100 µM | [17] > 100 µM | [9] > 100 µM | [11] > 100 µM | [12] > 100 µM | [18] > 100 µM | [13] > 100 µM | [14] > 100 µM | [19] > 100 µM | [15] > 100 µM | [20] > 100 µM

Cc1ccc(NC(=O)C(=O)C(C#N)c2ccccc2C)cc1C (configuration not stated)
> 42.4 µM: [8]
inactive: [1] > 100 µM | [2] > 68.2 µM | [4] > 100 µM | [5] > 41.8 µM | [6] > 100 µM | [7] > 100 µM | [17] > 100 µM | [9] > 100 µM | [11] > 100 µM | [12] > 61.7 µM | [18] > 44.9 µM | [13] > 91.6 µM | [14] > 100 µM | [19] > 100 µM | [15] > 100 µM | [20] > 69.3 µM
